Laboratory results: PMC11884936, “MDC1 mediates Pellino recruitment to sites of DNA double-strand breaks” (Life Science Alliance, 2025)
“Also recorded” adds a separate entry of the source. Square brackets hold non-standard residues; d marks the D form. Peptide text beside a SMILES is read from it. pS = N[C@@H](COP(=O)(O)O)C(=O)O

Columns and labels:
PELI1/2 = assay: Biotinylated peptide pull-down from HeLa nuclear extracts, Western blot for PELI1/2; type: binding, human; conditions: biotinylated peptide on streptavidin beads, 4 h at 4°C, SDS–PAGE and Western blot
Method: (§1) Streptavidin-coupled Dynabeads MyOne Streptavidin T1 (Invitrogen) were washed four times with PBS pH 7.4. To conjugate the Dynabeads with biotinylated peptides (21st Century Biochemicals, Inc.), 30 μl of beads were incubated with 0.2 μmol of each peptide with end-over-end rotation for 90 min at RT. Conjugated Dynabeads were then washed once with PBS and 3 × 2 min with 0.1% BSA in PBS. HeLa nuclear extracts (Ipracell) were diluted 1:1 in 2X Dilution buffer (100 mM NaCl, 10 mM NaF, 0.2 mM EDTA, 0.4% Igepal CA-630, 20 mM HEPES-KOH pH 7.4) supplemented with complete protease inhibitor cocktail (Roche), and cleared by centrifugation at 16,000g for 15 min at 4°C. Purified GST-PELI2-FHA recombinant protein was also diluted in 2X Dilution buffer containing protease inhibitors. MDC1-[p]TQXF peptide-conjugated Dynabeads were incubated either with clarified HeLa nuclear extracts for 4 h or with purified GST-PELI2-FHA for 5 h. H2AX-[p]S139 peptide-conjugated Dynabeads were incubated with clarified HeLa nuclear extracts for 4 h. In all the cases, incubation was performed with end-over-end rotation at 4°C. Beads were washed three times with Peptide pull-down buffer (50 mM NaCl, 50 mM KCl, 5 mM NaF, 0.1 mM EDTA, 0.2% Igepal CA-630, 10% glycerol, 20 mM HEPES-KOH pH 7.4) supplemented with complete protease inhibitor cocktail (Roche). Then, they were either resuspended in Peptide pull-down buffer and brought to the Functional Genomics Center of the University of Zurich (FGCZ) for further mass spectrometry, or elution was carried out in 2X SDS sample buffer (100 mM DTT, PLD001; Geneaid) for SDS–PAGE. […]
(§2) Adjusted volume (intensity) of Western blot bands was calculated with Image Lab (Bio-Rad, Image Lab Software Version 6.1, Bio-Rad Laboratories, Inc.) for every biotinylated p-peptide from the MDC1-[p]TQXF peptide pull-down from HeLa nuclear extracts, as a way of analyzing the binding affinity of either RNF8 or PELI1/2 for each pTQXF cluster. […]

RNF8 = assay: Biotinylated peptide pull-down from HeLa nuclear extracts, Western blot for RNF8; type: binding, human; conditions: biotinylated peptide on streptavidin beads, 4 h at 4°C, SDS–PAGE and Western blot
Method: as §1, with “h.” for “h. In all the cases, incubation was performed with end-over-end rotation at 4°C. Beads were washed three times with Peptide pull-down buffer (50 mM NaCl, 50 mM KCl, 5 mM NaF, 0.1 mM EDTA, 0.2% Igepal CA-630, 10% glycerol, 20 mM HEPES-KOH pH 7.4) supplemented with complete protease inhibitor cocktail (Roche). Then, they were either resuspended in Peptide pull-down buffer and brought to the Functional Genomics Center of the University of Zurich (FGCZ) for further mass spectrometry, or elution was carried out in 2X SDS sample buffer (100 mM DTT, PLD001; Geneaid) for SDS–PAGE.”
as §2

Pellino 2 FHA = target: T1, Pellino 2 FHA (Homo sapiens, UniProt Q9HAT8); assay: Isothermal titration calorimetry of phosphopeptides with PELI2 FHA fragment; type: binding; conditions: ITC
T1 construct: PELI1 and 2 FHA domains (residues 13–273 and 15–275, respectively); GST (N, cleaved yes); made in house; host or cells: E. coli BL21 (DE3)
T1 sequence (Q9HAT8 15-275): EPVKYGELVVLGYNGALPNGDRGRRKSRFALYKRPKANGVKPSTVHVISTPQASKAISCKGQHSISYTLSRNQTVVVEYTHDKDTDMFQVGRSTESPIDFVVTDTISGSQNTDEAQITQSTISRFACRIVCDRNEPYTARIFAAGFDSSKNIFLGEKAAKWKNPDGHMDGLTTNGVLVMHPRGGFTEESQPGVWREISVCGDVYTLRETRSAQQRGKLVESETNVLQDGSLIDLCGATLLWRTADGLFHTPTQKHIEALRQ
Method: (§3) The regions corresponding to the PELI1 and 2 FHA domains (residues 13–273 and 15–275, respectively) were cloned into the pGEX-6P1 vector using BamHI/XhoI restriction sites and expressed as a 3C protease-cleavable N-terminal GST fusion protein in BL21 (DE3) cells (NEB). A 20 ml LB overnight culture was inoculated into 1L of LB medium supplemented with 100 μg/ml ampicillin to an OD600 of 0.05 and incubated at 37°C, 250 rpm until an OD600 of 0.6 was reached, whereupon expression was induced with 1 mM isopropyl ß-D-1-thiogalactopyranoside (IPTG) and overnight incubation at 18°C. Overnight cultures were harvested for 20 min at 4,000g, 4°C and resuspended in 20 ml lysis buffer (50 mM HEPES pH 7.5, 150 mM NaCl, 0.2 mg/ml lysozyme, 20 μg/ml DNase, and 1x complete, EDTA-free protease inhibitor cocktail tablet) before sonication-mediated cell lysis. Insoluble material was removed by centrifugation (21,000g, 20 min) and the GST-FHA fusion proteins were purified from the clarified lysate containers using 1 ml bed volume of pre-equilibrated Glutathione Sepharose 4B beads. After washing with 20 column volumes of Pellino FHA buffer (50 mM HEPES pH 7.5, 150 mM NaCl), the protein was cleaved overnight at 4°C from GST with 1% (vol/vol) GST-3C protease and the flow-through was further purified by gel filtration using a HiLoad 16/60 Superdex 200 pg (Cytiva) column. Purified Pellino FHA domains were concentrated to 50 mg/ml with a 10 kD molecular weight cut-off concentrator (Sartorius).
(§4) For ITC analysis protein and peptides were buffer exchanged into 25 mM HEPES pH 7.0, 200 mM NaCl, 1 mM TCEP. Titrations were carried out using a Microcal PEAQ-ITC (Malvern) using 13 injections of peptide at a typical syringe concentration of 160 μM (1 × 0.4 μl, 12 × 3.0 μl) and FHA concentration of 16 μM in the cell. Data were analyzed with a single-site binding model using Microcal PEAQ-ITC software. Peptide sequences are: MDC1 pT699–AYDLQApTQCFA, MDC1-pT719–[…], MDC1-pT752–AYEVLApTQPFC, MDC1-pT765–AYEDSEpTQPFD, IRAK-pT141(+3Y)–AYSSASpTFLYP, γH2AX–GGKATQApSQEY. All peptides were synthesises with N-terminal acetylation and a C-terminal amide. MDC1 pT699 and pT719 were made with alanine substitutions at the pT+4 position (Leu and Met, respectively) to aid solubility and monodispersity.

MDC1 BRCT-r = target: T2, MDC1 BRCT-r (Homo sapiens, UniProt Q14676); assay: Isothermal titration calorimetry of γH2AX phosphopeptide with MDC1 BRCT-repeat fragment; type: binding
T2 sequence (Q14676 1883-2089 limits assumed): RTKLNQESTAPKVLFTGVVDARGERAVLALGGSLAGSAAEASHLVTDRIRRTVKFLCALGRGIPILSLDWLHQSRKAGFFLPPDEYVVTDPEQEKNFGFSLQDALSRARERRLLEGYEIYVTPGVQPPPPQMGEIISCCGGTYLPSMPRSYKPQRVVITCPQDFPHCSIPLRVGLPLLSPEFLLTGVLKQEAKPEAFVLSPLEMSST
Method: as §4

Pellino 1 FHA = target: T3, Pellino 1 FHA (Homo sapiens, UniProt Q96FA3); assay: Isothermal titration calorimetry of phosphopeptides with PELI1 FHA fragment; type: binding; conditions: ITC
T3 construct: PELI1 and 2 FHA domains (residues 13–273 and 15–275, respectively); GST (N, cleaved yes); made in house; host or cells: E. coli BL21 (DE3)
T3 sequence (Q96FA3 13-273): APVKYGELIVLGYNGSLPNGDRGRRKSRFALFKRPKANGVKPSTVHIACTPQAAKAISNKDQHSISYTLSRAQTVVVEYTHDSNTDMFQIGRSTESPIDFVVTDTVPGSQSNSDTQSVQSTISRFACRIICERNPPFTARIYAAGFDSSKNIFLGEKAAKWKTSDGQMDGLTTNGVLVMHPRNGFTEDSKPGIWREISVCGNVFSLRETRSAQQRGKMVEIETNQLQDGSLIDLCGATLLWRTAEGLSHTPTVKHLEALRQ
Method: as §3, §4

Compound | PELI1/2 pulled down by the peptide (in words) (PELI1/2) | RNF8 pulled down by the peptide (in words) (RNF8) | interaction detected by ITC (in words) (Pellino 2 FHA; N-terminal PELI2 fragment, listed as γH2AX phosphopeptide) | Kd (Pellino 2 FHA; PELI2 FHA (residues 15–275) 16 μM in cell, peptide 160 μM in syringe, 25 mM HEPES pH 7.0, 200 mM NaCl, 1 mM TCEP, single-site binding model) | DG (MDC1 BRCT-r; ITC Gibbs free energy, MDC1 BRCT-r) [kcal/mol] | DH (MDC1 BRCT-r; ITC change in enthalpy, MDC1 BRCT-r) [kcal/mol] | TDS (MDC1 BRCT-r; ITC temperature x change in entropy, MDC1 BRCT-r) [kcal/mol] | Kd (MDC1 BRCT-r; ITC, MDC1 BRCT-repeat fragment, 25 mM HEPES pH 7.0, 200 mM NaCl, 1 mM TCEP, single-site binding model) [nM] | interaction detected by ITC (in words) (MDC1 BRCT-r; ITC, purified MDC1 BRCT-repeat fragment, listed as γH2AX phosphopeptide) | interaction detected by ITC (in words) (Pellino 1 FHA; N-terminal PELI1 fragment (13–273), listed as γH2AX phosphopeptide) | Kd (Pellino 1 FHA; PELI1 FHA (residues 13–273) 16 μM in cell, peptide 160 μM in syringe, 25 mM HEPES pH 7.0, 200 mM NaCl, 1 mM TCEP, single-site binding model)
Biotin-SGS-DSEDLDLQA[p]TQCFLE-NH2 [biotinylated pT699, synthetic biotinylated MDC1 TQXF phosphopeptide for pull-downs] | highest quantities | highest quantities | – | – | – | – | – | – | – | – | –
Biotin-SGS-CLRESEDSE[p]TQPFDT-NH2 [biotinylated pT765, synthetic biotinylated MDC1 TQXF phosphopeptide for pull-downs] | more PELI1/2 than RNF8 | – | – | – | – | – | – | – | – | – | –
CC(=O)NCC(=O)NCC(=O)N[C@@H](CCCCN)C(=O)N[C@@H](C)C(=O)N[C@H](C(=O)N[C@@H](CCC(N)=O)C(=O)N[C@@H](C)C(=O)N[C@@H](COP(=O)(O)O)C(=O)N[C@@H](CCC(N)=O)C(=O)N[C@@H](CCC(=O)O)C(=O)N[C@@H](Cc1ccc(O)cc1)C(N)=O)[C@@H](C)O [Peptide H2AX-pS139, reference compound] (Ac-GGKATQA[pS]QEY-NH2) | – | – | did not detect any interaction; also recorded: no detectable interactions | N.D.B. | -8.27 | -13.9 | -5.62 | 850 | bound tightly; also recorded: tight binding | did not detect any interaction; also recorded: no detectable interactions | N.D.B.
